pIC50: −log10 of the molar value. Read-outs that look alike come from different tables or passages of the source.
How the values were obtained:
[1] = biological target: T1, topoisomerase I (Topo I) (Homo sapiens, UniProt P11387); assay: Topo I enzyme-inhibitory activity by agarose-gel electrophoresis (plasmid relaxation); type: biochemical
T1 sequence (P11387 1-765): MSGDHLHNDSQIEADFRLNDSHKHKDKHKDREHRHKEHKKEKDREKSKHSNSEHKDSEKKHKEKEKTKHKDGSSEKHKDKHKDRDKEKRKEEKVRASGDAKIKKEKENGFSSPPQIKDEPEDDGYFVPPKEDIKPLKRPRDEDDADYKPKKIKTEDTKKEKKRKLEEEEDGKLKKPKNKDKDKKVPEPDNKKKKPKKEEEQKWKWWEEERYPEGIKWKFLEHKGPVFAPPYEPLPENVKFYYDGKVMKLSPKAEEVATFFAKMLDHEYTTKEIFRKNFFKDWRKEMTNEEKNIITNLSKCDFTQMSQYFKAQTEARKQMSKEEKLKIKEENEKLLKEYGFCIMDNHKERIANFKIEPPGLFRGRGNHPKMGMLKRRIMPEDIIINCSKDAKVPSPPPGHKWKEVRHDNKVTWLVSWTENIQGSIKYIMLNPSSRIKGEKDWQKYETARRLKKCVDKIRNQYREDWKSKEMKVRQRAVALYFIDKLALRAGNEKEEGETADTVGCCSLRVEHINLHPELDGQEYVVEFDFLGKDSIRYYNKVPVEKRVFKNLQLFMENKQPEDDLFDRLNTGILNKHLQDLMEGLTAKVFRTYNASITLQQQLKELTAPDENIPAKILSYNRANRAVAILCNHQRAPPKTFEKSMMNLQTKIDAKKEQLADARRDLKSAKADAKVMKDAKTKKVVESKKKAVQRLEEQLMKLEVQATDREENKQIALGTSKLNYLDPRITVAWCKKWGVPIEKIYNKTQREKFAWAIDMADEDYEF
Procedure, shortened: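 Supercoiled pNO1 plasmid (0.5 µg) was relaxed by Topo I (0.75 U) in 20 mM Tris-HCl pH 7.5, 200 mM NaCl, 0.25 mM EDTA, 5 % glycerol, 5 % DMSO final, for 30 min at 37 °C. Supercoiled band intensity on agarose gel was normalized to no-enzyme and vehicle controls. IC50 from a four-parameter logistic fit.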

[2] = system: Human colon cancer HCT116 cells; assay: Subcutaneous xenograft model of human colon cancer HCT-116 cells; type: in vivo, BALB/c nude mice; settings: day 21 post-treatment, 5 mg/kg, IV, BIW×3W
Experimental: Test Example 4. Pharmacodynamic Evaluation of Compound 2, Compound 250, and Compound 253 in a Subcutaneous Xenograft Model of Human Colon Cancer HCT-116 Cells in BALB/c Female Nude Mice
Human colon cancer HCT116 cells were cultured in vitro as monolayers in McCoys 5a medium supplemented with 10% fetal bovine serum and 1% penicillin/streptomycin/amphotericin B at 37 °C in a 5% CO2 incubator. Cells were routinely passaged twice a week using trypsin-EDTA digestion. When cells reached 80%-90% confluence and the required cell number was achieved, cells were harvested. HCT116 cells (0.1 mL, 5×10^6 cells) were subcutaneously inoculated into the right dorsal region near the upper forelimb of each mouse (BALB/c nude mice, female, 6-8 weeks old). Treatment was initiated when the average tumor volume reached approximately 158 mm^3. Tumor volume was measured twice weekly. At the end of the experiment, the tumor growth inhibition rate (TGI) was calculated as: TGI (%) = [1 - (average tumor volume at the end of treatment in a particular group - average tumor volume at the start of treatment in that group) / (average tumor volume at the end of treatment in the vehicle control group - average tumor volume at the start of treatment in the vehicle control group)] × 100%.
(§1) Experimental Groups and Dosing Regimen:
• 1, Vehicle control group • 2, Compound 2, 5 mg/kg, IV, BIW×3W • 3, Compound 250, 5 mg/kg, IV, BIW×3W • 4, Compound 253, 5 mg/kg, IV, BIW×3W

[3] = system: Human colon cancer CR00090 cells; assay: CR00090 human colon cancer model (subcutaneous); type: in vivo, NPSG mice; settings: day 28 post-treatment, 5 mg/kg, IV, BIW×4W
Experimental: Test Example 5: Pharmacodynamic Evaluation of Compound 117, Compound 250, and Compound 253 in the CR00090 Human Colon Cancer Model
Human colon cancer CR00090 cells were thawed, counted, and mixed with Matrigel at a 1:1 ratio. Then, 0.1 mL (5×10^5 cells) of CR00090 cells were subcutaneously inoculated into the right dorsal region near the upper forelimb of each mouse (NPSG mice, female, 6-8 weeks old). Treatment was initiated when the average tumor volume reached approximately 84 mm^3. Tumor volume was measured twice weekly. At the end of the experiment, the tumor growth inhibition rate (TGI) was calculated as: TGI (%) = [1 - (average tumor volume at the end of treatment in a particular group - average tumor volume at the start of treatment in that group) / (average tumor volume at the end of treatment in the vehicle control group - average tumor volume at the start of treatment in the vehicle control group)] × 100%.
as §1
• 1, Vehicle control group • 2, Compound 117, 5 mg/kg, IV, BIW×4W • 3, Compound 250, 5 mg/kg, IV, BIW×4W • 4, Compound 253, 5 mg/kg, IV, BIW×4W

SMILES	pIC50 [1]	TGI [2] [%]	tumor volume ([2]; vehicle control 1146 mm^3) [mm^3]	pIC50 ([1]; read-out: inhibition of topoisomerase I (Topo I) enzymatic activity, IC50, 0.75 U Topo I, pNO1 plasmid, 37 °C, 30 min, compounds listed by group (Group A / Group B))	TGI [3] [%]	tumor volume ([3]; vehicle control 1093 mm^3) [mm^3]
CC[C@@]1(O)C(=O)OCc2c1cc1n(c2=O)Cc2c-1c(=O)c1cc(F)cc(C)c1n2C [Example 2, (S)-4-ethyl-8-fluoro-4-hydroxy-10,11-dimethyl-1,12-dihydro-14H-pyrano[3,4:6,7]indolizino[2,1-b]quinoline-3,6,14(4H,11H)-trione]	> 6.70	81.9	335	–	–	–
CC[C@@]1(O)C(=O)OCc2c1cc1n(c2=O)Cc2c-1c(=O)c1cc(F)ccc1n2CCN(C)C1CCCC1 [Example 117]	–	–	–	6.30 to 6.70	82.4	262
